Calls of active or inactive are those of the source. The rule behind the calls is not given here.
Assays:
RAW264.7 [1] = experiment: Antiinflammatory activity against mouse RAW264.7 cells assessed as inhibition of LPS-induced PGE2 production pretreated for 2 hrs followed by LPS stimulation for 24 hrs by ELISA; type: functional, cell-based; conditions: dose 2.5-20 µM, time 26.0 hrs
RAW264.7 [2] = experiment: Antiinflammatory activity against mouse RAW264.7 cells assessed as inhibition of LPS-induced NO production pretreated for 2 hrs followed by LPS stimulation for 24 hrs by ELISA; type: functional, cell-based; conditions: dose 2.5-20 µM, time 26.0 hrs
RAW264.7 [3] = experiment: Cytotoxicity against mouse RAW264.7 cells assessed as effect on cell viability at 2.5 to 20 uM measured after 24 hrs by CCK8 assay; type: toxicity, cell-based; conditions: raw264.7, 24 h, dose 2.5-20 µM
RAW264.7 [4] = experiment: Inhibition of MAPK signaling pathway in mouse RAW264.7 cells assessed as decrease in p38 phosphorylation at 2.5 to 5 uM pretreated for 1 hr followed by LPS stimulation for 25 mins by western blot analysis; type: cell-based; conditions: dose 2.5-5 µM, time 85.0 min
RAW264.7 [5] = experiment: Inhibition of NF-kappaB signaling pathway in mouse RAW264.7 cells assessed as decrease in NF-kappaB p65 phosphorylation at Ser536 residue at 2.5 to 5 uM pretreated for 1 hr followed by LPS stimulation for 25 mins by western blot analysis; type: cell-based; conditions: dose 2.5-5 µM, time 85.0 min
RAW264.7 [6] = experiment: Inhibition of NF-kappaB signaling pathway in mouse RAW264.7 cells assessed as decrease in IkappaBalpha phosphorylation at Ser32 residue at 2.5 to 5 uM pretreated for 1 hr followed by LPS stimulation for 25 mins by western blot analysis; type: cell-based; conditions: dose 2.5-5 µM, time 85.0 min
RAW264.7 [7] = experiment: Inhibition of MAPK signaling pathway in mouse RAW264.7 cells assessed as decrease in JNK phosphorylation at 2.5 to 5 uM pretreated for 1 hr followed by LPS stimulation for 25 mins by western blot analysis; type: cell-based; conditions: dose 2.5-5 µM, time 85.0 min
RAW264.7 [8] = experiment: Antiinflammatory activity against mouse RAW264.7 cells assessed as inhibition of LPS-induced TNF-alpha production pretreated for 2 hrs followed by LPS stimulation for 24 hrs by ELISA; type: functional, cell-based; conditions: dose 2.5-20 µM, time 26.0 hrs
RAW264.7 [9] = experiment: Inhibition of MAPK signaling pathway in mouse RAW264.7 cells assessed as decrease in ERK1/2 phosphorylation at 2.5 to 5 uM pretreated for 1 hr followed by LPS stimulation for 25 mins by western blot analysis; type: cell-based; conditions: dose 2.5-5 µM, time 85.0 min
RAW264.7 [10] = experiment: Antiinflammatory activity against mouse RAW264.7 cells assessed as inhibition of LPS-induced IL-6 production pretreated for 2 hrs followed by LPS stimulation for 24 hrs by ELISA; type: functional, cell-based; conditions: dose 2.5-20 µM, time 26.0 hrs
RAW264.7 [11] = experiment: Antiinflammatory activity against mouse RAW264.7 cells assessed as inhibition of LPS-induced COX-2 protein expression at 2.5 to 5 uM pretreated for 1 hr followed by LPS stimulation for 25 mins by western blot analysis; type: functional, cell-based; conditions: dose 2.5-5 µM, time 85.0 min

Compound: C=C1CCC[C@H]2[C@](C)(Cc3cc(O)cc(C(C)=O)c3O)[C@@H](C)CC[C@]12C
- Activity (RAW264.7 [1]): Dose-dependent-effect
- Activity (RAW264.7 [2]): Dose-dependent-effect
- Activity (RAW264.7 [3]): Non-toxic
- inhibition (RAW264.7 [4]): Active
- inhibition (RAW264.7 [5]): Active
- inhibition (RAW264.7 [6]): Active
- inhibition (RAW264.7 [7]): Active
- Activity (RAW264.7 [8]): Dose-dependent-effect
- inhibition (RAW264.7 [9]): Active
- Activity (RAW264.7 [10]): Dose-dependent-effect
- Activity (RAW264.7 [11]): Active

Compound: CC1=CCC[C@H]2[C@](C)(CC3=CC(=O)C=C(NCCO)C3=O)[C@@H](C)CC[C@]12C
- Activity (RAW264.7 [3]): Non-toxic

Compound: CC(=O)c1cc(O)cc(C[C@]2(C)[C@@H](C)CC[C@]3(C)C(C)=CCC[C@@H]23)c1O
- Activity (RAW264.7 [3]): Non-toxic

Compound: CC1=CCC[C@H]2[C@](C)(CC3=CC(=O)C=C(N(C)CCO)C3=O)[C@@H](C)CC[C@]12C
- Activity (RAW264.7 [3]): Non-toxic

Compound: C[C@H]1CC[C@@]2(C)[C@@H](CC[C@@H](O)[C@@]2(C)O)[C@]1(C)Cc1cc(O)cc2nc3n(c12)CCC3
- Activity (RAW264.7 [3]): Non-toxic

Compound: CC1=CCC[C@H]2[C@](C)(CC3=CC(=O)C(NCCO)=CC3=O)[C@@H](C)CC[C@]12C
- Activity (RAW264.7 [3]): Non-toxic

Compound: CC1=CCC[C@H]2[C@](C)(Cc3cc4c(cc3O)[n+](CCS(=O)(=O)[O-])c3n4CCC3)[C@@H](C)CC[C@]12C
- Activity (RAW264.7 [3]): Non-toxic
